Reference: patent US20230286983A1 (4E Therapeutics, Inc., priority 2020, published 2023)
“And” between values parts separate entries of the source, which are not always exact repeats. Equal entries are not always repeated. Where two headings read alike, the source gives them in different places. Values belong to the compound of their own block, whether it stands above or below them.

What was measured:
[1] = test system: IL-6 evoked grimace; test: IL-6 evoked grimace test; assay type: in vivo, ICR mice
Description: Institute for Cancer Research (ICR) mice were used in these experiments. Mice were bred in house at University of Texas at Dallas and used at between 12 and 24 weeks of age. Mice were habituated to plexiglass boxes of approximately 4×6 inches in size with openable tops. Habituation took place over 2 days with animals exposed to the boxes for at least 30 min. A blinded observer scored baseline grimacing using the method previously described by Mogil and colleagues (Langford, et al., Coding of facial expressions of pain in the laboratory mouse. Nat Methods (2010) 7:447-449.). On test day, mice were given test compounds 1 hr prior to injection of interleukin 6 (human recombinant IL-6, R&D Systems) which was given at a dose of 0.1 ng in saline via an intraplantar injection as described previously (Moy et al. The MNK-eIF4E Signaling Axis Contributes to Injury-Induced Nociceptive Plasticity and the Development of Chronic Pain. J Neurosci (2017) 37:7481-7499.). Test compounds were given orally (PO) via a flexible oral gavage canula built for mice. 4ET-01-021 (10.0, 3.0, and 1.0 mg/kg) and 4ET-03-052B (10.0 mg/kg) are efficacious in the IL-6 evoked grimace test in mice. FIG. 5 depicts a comparison of effect size in the IL-6 evoked grimace test. Effect sizes were calculated per mouse by subtracting the baseline grimace score from the sum of the grimace scores for 1 and 3 hr time points. […] FIG. 6 is a graph showing the effect size in the IL-6 evoked grimace test vs. dose of 4ET-01-021.

[2] = test system: p-eIF4E; test: Western blot of eIF4E and p-eIF4E in tissues, 4ET-03-009; assay type: in vivo, mice; conditions: 10 mg/kg oral, 2 hours after dosing, vs vehicle
Description: In separate mice administered the same therapy, 2 hours after dosing tissues were harvested from the sciatic nerve, liver, brain, and DRG and homogenized, then subjected to Western blot analysis for eIF4E and p-eIF4E. Control mice administered only the solvent vehicle with no MNK inhibitor were also assayed. Amounts of p-eIF4E in each tissue based on the mean for all three mice administered the therapeutic and based on the mean for all three control mice are presented in FIG. 2, right panel. […] Units on the y-axis are % of signal standardized to the control.

[3] = Pharmacokinetic study, 4ET-03-009 at 20 mg/kg oral; assay type: in vivo, CD-1 male mice; conditions: for AUCinf/D / Cmax/D: dose normalized; for concentration at 0.083 hours / concentration at 0.25 hours / concentration at 0.5 hours / concentration at 1 hours / concentration at 2 hours / concentration at 4 hours / concentration at 6 hours / concentration at 8 hours / concentration at 24 hours: oral
Description: Compound 4ET-03-009 was dissolved in a 10% dimethylacetamide (DMA)/3000 polyethylene glycol (PEG) 300/400% propylene glycol (PG)/200% water solvent. […] Plasma was collected at indicated timepoints and plasma concentration of compound 4ET-03-009 was measured using liquid chromatography-mass spectrometry/mass spectrometry (LC-MS/MS). Results are presented in FIG. 1 and Tables 3, 4, and 5.
Compound 4ET-03-009 was dissolved in a 10% dimethylacetamide (DMA)/30% polyethylene glycol (PEG) 300/40% propylene glycol (PG)/20% water solvent. Dosing and assay were performed as described in Biological Example 2. Results are presented in FIG. 3 and Tables 7, 8, and 9, below.

[4] = male, CD-1, mouse, plasma, po, 20 mg/kg, Mean (n = 3)
[5] = male, CD-1, mouse, plasma, po, 20 mg/kg, individual animals

SMILES: CCC1=CC2(CCC1)NC(=O)c1c(C)cc(Nc3cc(N)ncn3)c(=O)n12 (stereo not drawn) [Compound 4ET-01-021, 6′-((6-Aminopyrimidin-4-yl)amino)-3-ethyl-8′-methyl-2′H-spiro[cyclohexane-1,3′-imidazo[1,5-a]pyridin]-2-ene-1′,5′-dione]
ED50 ([1]; Mus musculus, PO, effect size vs. dose): 0.4 mg/kg | efficacy in the IL-6 evoked grimace test ([1]; PO 1 hr prior to IL-6, 4ET-01-021 10.0, 3.0 and 1.0 mg/kg, 4ET-03-052B 10.0 mg/kg): efficacious | effect size in the IL-6 evoked grimace test ([1]; sum of grimace scores at 1 and 3 hr minus baseline): statistically-significant effect sizes

Plasma Conc. (per mouse n = 3) ([3]; 0.083 hours): 384 ng/mL and 304 ng/mL | Plasma Conc. (per mouse n = 3) ([3]; 0.25 hours): 529 ng/mL and 396 ng/mL | Plasma Conc. (per mouse n = 3) ([3]; 0.5 hours): 607 ng/mL and 497 ng/mL | Plasma Conc. (per mouse n = 3) ([3]; 1 hours): 561 ng/mL and 448 ng/mL | Plasma Conc. (per mouse n = 3) ([3]; 2 hours): 372 ng/mL and 286 ng/mL | Plasma Conc. (per mouse n = 3) ([3]; 4 hours): 144 ng/mL and 135 ng/mL | Plasma Conc. (per mouse n = 3) ([3]; 6 hours): 71.3 ng/mL and 58.7 ng/mL | Plasma Conc. (per mouse n = 3) ([3]; 8 hours): 51.4 ng/mL and 41.5 ng/mL | Plasma Conc. (per mouse n = 3) ([3]; 24 hours): 2.01 ng/mL and 1.89 ng/mL | Tlast ([3]; Mean (n = 3)): 24.0 h | t1/2 ([3]; Mean (n = 3)): 3.55 h | AUCinf/D ([3]; Mean (n = 3)): 113 kg·h/kL | Cmax/D ([3]; Mean (n = 3)): 29.5 kg/kL | AUC0-8 hours ([3]; individual animals): 1847 ng·h/mL and 1501 ng·h/mL | AUCinf ([3]; individual animals): 2284 ng·h/mL and 1858 ng·h/mL | AUClast ([3]; individual animals): 2274 ng·h/mL and 1848 ng·h/mL | Clast ([3]; individual animals): 2.01 ng/mL and 1.89 ng/mL | Cmax ([3]; individual animals): 607 ng/mL and 497 ng/mL | MRTinf ([3]; individual animals): 3.53 h | Tlast ([3]; individual animals): 24.0 h | t1/2 ([3]; individual animals): 3.47 h and 3.61 h | Cmax/D ([3]; individual animals): 33.3 kg/kL and 30.4 kg/kL and 24.9 kg/kL | Tmax ([3]; male, CD-1, mouse, plasma, individual animals): 0.5 h | concentration at 0.083 hours ([3]; male, CD-1, mouse, plasma, 20 mg/kg, 0.083 hours, mean n = 3, read-out: Plasma Conc. Mean): 331 ng/mL | concentration at 0.083 hours ([3]; male, CD-1, mouse, plasma, 20 mg/kg, 0.083 hours, read-out: Plasma Conc. (per mouse n = 3)): 304 ng/mL | concentration at 0.25 hours ([3]; male, CD-1, mouse, plasma, 20 mg/kg, 0.25 hours, mean n = 3, read-out: Plasma Conc. Mean): 530 ng/mL | concentration at 0.25 hours ([3]; male, CD-1, mouse, plasma, 20 mg/kg, 0.25 hours, read-out: Plasma Conc. (per mouse n = 3)): 665 ng/mL | concentration at 0.5 hours ([3]; male, CD-1, mouse, plasma, 20 mg/kg, 0.5 hours, mean n = 3, read-out: Plasma Conc. Mean): 590 ng/mL | concentration at 0.5 hours ([3]; male, CD-1, mouse, plasma, 20 mg/kg, 0.5 hours, read-out: Plasma Conc. (per mouse n = 3)): 666 ng/mL | concentration at 1 hours ([3]; male, CD-1, mouse, plasma, 20 mg/kg, 1 hours, mean n = 3, read-out: Plasma Conc. Mean): 553 ng/mL | concentration at 1 hours ([3]; male, CD-1, mouse, plasma, 20 mg/kg, 1 hours, read-out: Plasma Conc. (per mouse n = 3)): 649 ng/mL | concentration at 2 hours ([3]; male, CD-1, mouse, plasma, 20 mg/kg, 2 hours, mean n = 3, read-out: Plasma Conc. Mean): 355 ng/mL | concentration at 2 hours ([3]; male, CD-1, mouse, plasma, 20 mg/kg, 2 hours, read-out: Plasma Conc. (per mouse n = 3)): 408 ng/mL | concentration at 4 hours ([3]; male, CD-1, mouse, plasma, 20 mg/kg, 4 hours, mean n = 3, read-out: Plasma Conc. Mean): 153 ng/mL | concentration at 4 hours ([3]; male, CD-1, mouse, plasma, 20 mg/kg, 4 hours, read-out: Plasma Conc. (per mouse n = 3)): 180 ng/mL | concentration at 6 hours ([3]; male, CD-1, mouse, plasma, 20 mg/kg, 6 hours, mean n = 3, read-out: Plasma Conc. Mean): 74.5 ng/mL | concentration at 6 hours ([3]; male, CD-1, mouse, plasma, 20 mg/kg, 6 hours, read-out: Plasma Conc. (per mouse n = 3)): 93.6 ng/mL | concentration at 8 hours ([3]; male, CD-1, mouse, plasma, 20 mg/kg, 8 hours, mean n = 3, read-out: Plasma Conc. Mean): 50.2 ng/mL | concentration at 8 hours ([3]; male, CD-1, mouse, plasma, 20 mg/kg, 8 hours, read-out: Plasma Conc. (per mouse n = 3)): 57.6 ng/mL | concentration at 24 hours ([3]; male, CD-1, mouse, plasma, 20 mg/kg, 24 hours, mean n = 3, read-out: Plasma Conc. Mean): 2.22 ng/mL | concentration at 24 hours ([3]; male, CD-1, mouse, plasma, 20 mg/kg, 24 hours, read-out: Plasma Conc. (per mouse n = 3)): 2.75 ng/mL | concentration at 24 hours ([3]; male, CD-1, mouse, plasma, 20 mg/kg, Mean (n = 3), read-out: Clast): 2.22 ng/mL | concentration at 24 hours ([3]; male, CD-1, mouse, plasma, 20 mg/kg, individual animals, read-out: Clast): 2.75 ng/mL | AUC(0-inf) [3, 4]: 2260 ng·h/mL | MRT inf [3, 4]: 3.59 h | half-life [3, 4]: 3.6 h | AUC(0-t) ([3]; male, CD-1, mouse, plasma, po, 20 mg/kg, Mean (n = 3), read-out: AUC0-8 hours): 1830 ng·h/mL | AUC(0-t) ([3]; male, CD-1, mouse, plasma, po, 20 mg/kg, Mean (n = 3), read-out: AUClast): 2240 ng·h/mL | Cmax ([3]; male, CD-1, mouse, plasma, po, 20 mg/kg, Mean (n = 3), read-out: Cmax): 590 ng/mL | AUC(0-inf) ([3]; male, CD-1, mouse, plasma, po, 20 mg/kg, for the study): 2260 ng·h/mL | Cmax ([3]; male, CD-1, mouse, plasma, po, 20 mg/kg, for the study, read-out: Cmax): 1400 nM | AUC(0-inf) [3, 5]: 2630 ng·h/mL | MRT inf [3, 5]: 3.63 h | half-life [3, 5]: 3.58 h | AUC(0-t) ([3]; male, CD-1, mouse, plasma, po, 20 mg/kg, individual animals, read-out: AUC0-8 hours): 2130 ng·h/mL | AUC(0-t) ([3]; male, CD-1, mouse, plasma, po, 20 mg/kg, individual animals, read-out: AUClast): 2610 ng·h/mL | Cmax ([3]; male, CD-1, mouse, plasma, po, 20 mg/kg, individual animals, read-out: Cmax): 666 ng/mL
SMILES: Cc1cc(Nc2cc(NC(=O)C3CC3)ncn2)c(=O)n2c1C(=O)NC21CCOCC1 [Compound 4ET-03-009, N-(6-((8-Methyl-1,5-dioxo-1,2′,3′,5,5′,6′-hexahydro-2H-spiro[imidazo[1,5-a]pyridine-3,4′-pyran]-6-yl)amino)pyrimidin-4-yl)cyclopropanecarboxamide]
p-eIF4E in sciatic nerve, liver, brain and DRG [2]: significantly decreased peIF4E in all tissues assayed | abnormal clinical symptoms during the study [3]: No abnormal clinical symptoms were observed | AUCinf/D ([3]; individual animals): 131 kg·h/kL and 114 kg·h/kL and 92.9 kg·h/kL
